From patent publication US4600540A, “Benzoylpropionic acid derivatives” (Taisho Pharmaceutical Co., Ltd., priority 1984, dated 1986) come the findings set out here.

In data set [1] the test system is adjuvant arthritis in Lewis rats. Kind of data set: Effect on adjuvant arthritis in Lewis rats (Cellular immunostimulation). Conditions: 100 mg/Kg orally once a day, 21 days after sensitization; for Tumor stimulating ratio: control = 1.00; for Edema volume: hind paw. It is filed as in vivo. The procedure: Effect on adjuvant arthritis in Lewis rats
(Cellular immunostimulation)
10 Female Lewis rats, 9 weeks old, weighing 180-190 g were used per each group. Rats of each group were administered subcutaneously into the tail with a suspension of 0.6 mg of heated killed mycobaterium butyricum in liquid parafin. Each of the compounds I, suspended in a 5% gum arabic solution, was administered orally once a day to rats of different groups in an amounts of 100 mg/Kg after sensitization. As a comparative drug was used D-penicillamine in the form of an aqueous solution, which was administered orally to rats of different groups in a manner similar to the compound I.
In intervals were measured the edema volume of the hind paw of rats in the drug-treated groups and the control (the drug-untreated groups) for evaluating the tumor stimulating activity of the drug.

The test system of data set [2] is adjuvant arthritis in Sprague-Dawley rats. Kind of data set: Effect on adjuvant arthritis in Sprague-Dawley rats (chronic rheumatoid arthritis model). In kind it is in vivo. The note with it: 21 days after sensitization; for Edema volume: hind paw; for Paw edema suppression rate: vs control. How it is done: Effect on adjuvant arthritis is Sprague-Dawley rats
(chronic rheumatoid arthritis model)
10 Female Sprague-Dawley rats, 8 weeks old, weighting 160-190 g were used per each group. Rats of each group were administered subcutaneously into the tail with a suspension of 0.6 mg of heated killed mycobaterium butyricum in liquid parafin. Each of the compounds I, suspended in a 5% gum arabic solution, was administered orally once a day to rats of different groups in different amounts after sensitization.
At intervals were measured the edema volume of the hind paw of rats in the drug-treated groups and the control (drug-untreated groups) for evaluating tumor suppression activity of the compounds I.

The subject of data set [3] is delayed-type footpad reaction. The experiment in a line: Effect on delayed-type footpad reaction (Cellular immunomodulating effect). It is filed as in vivo, Balb/c mice. Conditions: 2 hours after sensitization. How it is done:
Effect on delayed-type footpad reaction
(Cellular immunomodulating effect)
8 Female Balb/c mice, 8-12 weeks oil, weighing 20-24 g were used per each group. Mice of each group were administered subcutaneously into the right footpad with 1×10^8 sheep red blood cells as antigen to be sensitized.
Each of the compounds I, suspended in a 0.5% gum arabic saline solution, was administered intraperitoneally to mice of different groups in different amounts 2 hours after the sensitization.
Four days after the sensitization, mice of each group were administered subcutaneously into the left footpad with 1×10^8 sheep red blood cells, and the increase of thickness of swelling footpad was measured for evaluating the suppression to the delayed-type footpad reaction according to the method of Lagrange et al [Journal of Experimental Medicine, vol. 139, page 528,(1974)].

In data set [4] the test system is spleen lymphocytes. The experiment in a line: Stimulating effect of lymphocytes transformation (3H-thymidine uptake, mitogenation). It is filed as cell-based, BDF1 mice. The note with it: Mus musculus, Lymphocyte, B medium (with lipopolysaccharide 0.2 μg/ml); 0.3 μg/ml. The procedure:
Stimulating effect of lymphocytes transformation
(Immunomodulative stimulating effect)
Mediums of RPMI-1640 (produced by GIBCO Co.) containing the compound I only (A medium), and containing a mitogen (lipopolysaccharide 0.2 μg/ml) and the compound I (B medium) were prepared.
2×10^5 of spleen lymphocytes of female BDF1 mice, 8-12 weeks old, weighing 20-22 g were cultured on each of the mediums at 37° C. for 48 hours under a 5% carbon dioxide in air. 0.25 μCi of ^3 H-thymidine was added to each of the mediums, and cultivation was further carried out for 22 hours. After completion of the cultivation, the lymphocytes were collected and their radio activity was measured to calculate the ^3 H-thymidine uptake into the lymphocytes for evaluating mitogenation.
The results were expressed as percent to ^3 H-thymidine uptake into lymphocytes in the control medium (not containing the compound I) and shown in Table 4.

A further data set is described as follows: Acute toxicity. The note with it: rat, in vivo; oral, male Wister rats, observed for 7 days. How it is done:
7 male, 7 weeks old, Wister rats weighing 149-160 g were used per each for test. Rats were administered orally with a suspension of the compound I of Example 1 in a 5% gum arabic solution and observed for 7 days after administration, and the LD50 value was calculated.

The test system of data set [5] is spleen lymphocytes. The experiment in a line: Stimulating effect of lymphocytes transformation (3H-thymidine uptake, mitogenation). In kind it is cell-based, BDF1 mice. Conditions: Mus musculus, Lymphocyte; for activity at 0.3 µg/mL: 0.3 μg/ml; for activity at 1 µg/mL: 1 μg/ml; for activity at 3 µg/mL: 3 μg/ml; for activity at 10 µg/mL: 10 μg/ml; for activity at 30 µg/mL: 30 μg/ml.

Where [6] appears, read: B medium (with lipopolysaccharide 0.2 μg/ml).

As for `CC(C)(S)[C@@H](N)C(=O)O` [D-penicillamine, reference compound], in data set [1], the Tumor stimulating ratio came to 1.38 and the Edema volume is 3.76 ± 0.11 mL.
Regarding `CC(=O)SCC(CC(=O)c1ccccc1)C(=O)O` (centres unmarked) [Example 1, 2-acethylthiomethyl-3-benzoylpropionic acid], in data set [2] (30 mg/kg orally once a day), the Edema volume turned out to be 0.58 ± 0.18 mL and the “Paw edema suppression rate” value turned out to be 69.0%. Moreover, in data set [3] (10 mg/kg intraperitoneally), the “Increase of thickness of swelling footpad” value (from here on “Increase”) is reported as 102.5 ± 10.8 × 10^-2 mm and the “Suppression rate of delayed-type footpad reaction” value turned out to be 37.7. In addition, in data set [3] (100 mg/kg intraperitoneally), the “Increase” value is 80.6 ± 8.0 × 10^-2 mm and the “Suppression rate of delayed-type footpad reaction” value came to 51.0. In the data set with spleen lymphocytes [4], the activity at 0.3 µg/mL was found to be 134%. Moreover, in the data set “Acute toxicity”, the LD50 (in general, the dose expected to kill half of the subjects tested) at 168 h was above 1200 mg/kg. Besides, in the data set on spleen lymphocytes [5] (A medium (compound only)), the activity at 0.3 µg/mL was found to be 120%, the activity at 1 µg/mL is 114%, the activity at 3 µg/mL worked out at 129% and the activity at 10 µg/mL amounted to 128%. Besides, the activity at 30 µg/mL with spleen lymphocytes [5] (A medium (compound only)) worked out at 149%. In addition, in the data set with spleen lymphocytes [5] (setting [6]), the activity at 1 µg/mL turned out to be 146%, the activity at 3 µg/mL was found to be 177%, the activity at 10 µg/mL is 217% and the activity at 30 µg/mL turned out to be 241%.
On to `CC(=O)SCC(CC(=O)c1ccc(F)cc1)C(=O)O` (centres unmarked) [Example 2], for which, in data set [1], the Tumor stimulating ratio is on record as 1.27 and the Edema volume is 3.46 ± 0.47 mL.
On to `CC(=O)SCC(CC(=O)c1ccc(Cl)cc1)C(=O)O` (centres unmarked) [Example 3], for which, in data set [1], the Tumor stimulating ratio amounted to 1.18 and the Edema volume is 3.22 ± 0.09 mL.
With `CC(=O)SCC(CC(=O)c1ccc(Br)cc1)C(=O)O` (centres unmarked) [Example 4, 2-acetylthiomethyl-3-(4-bromobenzoyl)propionic acid], the Edema volume was 0.64 ± 0.29 mL in data set [2] (30 mg/kg orally once a day), 0.36 ± 0.14 mL in data set [2] (100 mg/kg orally once a day), 0.12 ± 0.09 mL in data set [2] (300 mg/kg orally once a day) and 3.27 ± 0.28 mL in data set [1]. In addition, the “Paw edema suppression rate” value is reported as 65.8% in data set [2] (30 mg/kg orally once a day), 80.7% in data set [2] (100 mg/kg orally once a day) and 93.6% in data set [2] (300 mg/kg orally once a day). Besides, the Tumor stimulating ratio in data set [1] was determined as 1.20. Also, the “Increase” value in data set [3] (10 mg/kg intraperitoneally) was 115.6 ± 4.8 × 10^-2 mm; in data set [3] (100 mg/kg intraperitoneally), 89.4 ± 5.5 × 10^-2 mm. Also, the “Suppression rate of delayed-type footpad reaction” value in data set [3] (10 mg/kg intraperitoneally) worked out at 8.5; in data set [3] (100 mg/kg intraperitoneally), 29.3. The results for the activity at 0.3 µg/mL in the data set with spleen lymphocytes [4] and in the data set with spleen lymphocytes [5] (A medium (compound only)) were 115% and 83%, respectively. The activity at 3 µg/mL with spleen lymphocytes [5] (A medium (compound only)) came to 97%; in the data set on spleen lymphocytes [5] (setting [6]), 107%. Further, the activity at 30 µg/mL in the data set with spleen lymphocytes [5] (A medium (compound only)) turned out to be 117%; in the data set on spleen lymphocytes [5] (setting [6]), 131%.
In the case of `COc1ccc(C(=O)CC(CSC(C)=O)C(=O)O)cc1` (centres unmarked) [Example 7], in data set [1], the Tumor stimulating ratio was determined as 1.25 and the Edema volume amounted to 3.41 ± 0.19 mL.
Turning to `O=C(CC(CSC(=O)c1ccccc1)C(=O)O)c1ccccc1` (centres unmarked) [Example 13, 3-benzoyl-2-benzoylthiomethylpropionic acid], in data set [1], the Tumor stimulating ratio was 1.33 and the Edema volume worked out at 3.63 ± 0.11 mL.
Regarding `CCOC(=O)C(CSC(C)=O)CC(=O)c1ccccc1` (centres unmarked) [Example 16, ethyl 2-acethylthiomethyl-3-benzoylpropionate], in data set [1], the Tumor stimulating ratio was 1.17 and the Edema volume is 3.18 ± 0.17 mL.
